Results reported in patent US5414008A, “Imidazolyl-substituted phenylpropionic and cinnamic acid derivatives” (Bayer Aktiengesellschaft, priority 1992, dated 1995).

What was measured:
smooth muscle cells = assay: Inhibition of the proliferation of smooth muscle cells (3H-thymidine incorporation); format: cell-based; conditions: Sus scrofa, 10^-6 M, smooth muscle cells from pig aortas
Experimental: To determine the antiproliferative action of the compounds, smooth muscle cells are used which are obtained from aortas of pigs by the media explant technique [R.Ross, J. Cell. Biol. 50, 172, 1971]. The cells are inoculated into suitable culture dishes, as a rule 96-hole plates, and cultured in 5% CO2 at 37° C. for 2-3 days in medium 199 containing 7.5% FCS and 7.5% NCS, 2 mmol L-glutamine and 15 mmol HEPES, pH 7.4. The cells are then synchronised by withdrawal of serum for 2-3 days and then stimulated into growth with serum or other factors. Test compounds are simultaneously added. After 16-20 hours, 1 μCi ^3 H-thymidine is added and after a further 4 hours the incorporation of this substance into the TCA-precipitatable DNA of the cells is determined.
To determine the IC50 values, the active compound concentration is calculated which on sequential dilution of the active compound causes half-maximal inhibition of the thymidine incorporation produced by 1% FCS.

[1] = test system: isolated rabbit aorta rings, contraction induced by angiotensin II; assay: Inhibition of vascular contraction induced by angiotensin II (AII) in isolated rabbit aorta rings in vitro; conditions: based on 3rd = submaximal agonist concentration, read-out: IC50 against contractions induced by AII
Experimental: Rabbits of either sex are stunned by a blow to the back of the head and bled out, or in some cases anaesthetized with Nembutal (about 60-80 mg/kg i.v.) and sacrificed by opening the thorax. The thorax aorta is removed, freed from adhering connective tissue, divided into ring segments 1.5 mm wide and individually transferred under an initial loading of about 3.5 g to 10 ml organ baths containing Krebs-Henseleit nutrient solution, which is temperature-controlled at 37° C. and aerated with 95% 02/5 % CO2, of the following composition: 119 mmol/l of NaCl; 2.5mmol/l of CaCl2 ×2H2 O; 1.2 mmol/1 of KH2 PO4; 10mmol/l of glucose; 4.8 mmol/l of KCl; 1.4 mmol/l of MgSO4 ×H2 O and 25 mmol/1 of NaHCO3.
The contractions are detected isometrically by Statham UC2 cells by means of bridge amplifiers (ifd Milheim or DSM Aalen) and digitalised and assessed by means of A/D converters (System 570, Keithley Munich). Agonist dose response curves (DRC) are plotted hourly. With each DRC, 3 or 4 individual concentrations are applied to the baths at a 4 min interval. After the end of the DRC and subsequent washing-out cycles (16 times in each case about 5 sec/min with the abovementioned nutrient solution), a 28-minute rest or incubation phase follows, during which the contractions as a rule reach the staring value again.
The height of the 3rd DRC, in a normal case, is used as a reference variable for the assessment of the test substance to be investigated in further runs, which is applied to the baths in the following DRCs in increasing doses in each case at the start of the incubation period. Each aorta ring is in this case stimulated for the whole day, always with the same agonist.
For the calculation of the IC50 (concentration at which the substance to be investigated causes a 50% inhibition), the effect is in each case based on the 3rd =submaximal agonist concentration.

angiotensin II receptor = target: T1, angiotensin II receptor (Bos taurus, UniProt P25104); assay: Angiotensin II receptor binding (3H-angiotensin II) in membrane fractions of bovine adrenal gland cortex; conditions: bovine adrenal gland cortex membranes, 3H-angiotensin II 3-5 nM, 60 min, room temperature
T1 construct: Bovine adrenal gland cortices (AGC), which have been freshly removed and carefully freed from gland medulla; from tissue; host or cells: bovine adrenal gland cortex, partially purified membrane fractions
T1 sequence (P25104 1-359): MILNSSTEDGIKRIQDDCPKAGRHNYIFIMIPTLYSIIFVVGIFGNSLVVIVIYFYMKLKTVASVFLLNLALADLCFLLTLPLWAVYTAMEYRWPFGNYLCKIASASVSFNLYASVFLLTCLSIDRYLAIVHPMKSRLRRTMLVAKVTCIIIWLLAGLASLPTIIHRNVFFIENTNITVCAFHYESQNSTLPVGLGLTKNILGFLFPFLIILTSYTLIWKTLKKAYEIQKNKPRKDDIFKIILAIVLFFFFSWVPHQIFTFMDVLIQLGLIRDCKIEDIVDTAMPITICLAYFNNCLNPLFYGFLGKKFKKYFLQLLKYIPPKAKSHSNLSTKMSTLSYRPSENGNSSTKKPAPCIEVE
Experimental: Bovine adrenal gland cortices (AGC), which have been freshly removed and carefully freed from gland medulla, are comminuted in sucrose solution (0.32 M) with the aid of an Ultra-Turrax (Janke & Kunkel, Staufen i.B.) to give a coarse membrane homogenate and partially purified in two centrifugation steps to give membrane fractions. The receptor binding investigations are carried out on partially purified membrane fractions of bovine AGC using radioactive angiotensin II in an assay volume of 0.25 ml, which specifically contains the partially purified membranes (50-80 μg), ^3 H-angiotensin II .(3-5 nM), test buffer solution (50 mMTris, pH 7.2, 5 mM MgCl2) and the substances to be investigated. After an incubation time of 60 min at room temperature, the unbound radioactivity of the samples is separated by means of moistened glass fibre filters (Whatman GF/C) and the bound radioactivity is measured […] in a scintillation cocktail after washing the protein with ice-cold buffer solution (50 mM Tris/HCl, pH 7.4, 5% PEG 6000). The analysis of the raw data was carried out using computer programs to give Ki or IC50 values (Ki : IC50 values corrected for the radioactivity used; IC50 values: concentration at which the substance to be investigated causes a 50% inhibition of the specific binding of the radioligand).

Compound | inhibition at 1 µM (smooth muscle cells) [%] | IC50 [1] [nM] | Ki (angiotensin II receptor) [nM]
CCCCc1nc(Cl)c(CO)n1Cc1ccc(C(CC(=O)OC(C)(C)C)c2ccccc2)cc1 (centres unmarked) [Example 18] | 90 | – | –
CCCCc1nc(Cl)c(CO)n1Cc1ccc(C(=CC(=O)NC(CO)c2ccccc2)c2ccccc2)cc1 (centres unmarked) [Example 20] | – | 360 | –
CCCCc1nc(Cl)c(CO)n1Cc1ccc(/C(=C\C(=O)O)c2ccccc2)cc1 [Example 30] | – | 580 | 340
CCCCc1nc(Cl)c(C=O)n1Cc1ccc(/C(=C/C(=O)O)c2ccccc2)cc1 [Example 31] | – | 360 | 310
CCCCc1nc(Cl)c(C=O)n1Cc1ccc(C(CC(=O)O)c2ccccc2)cc1 (centres unmarked) [Example 35] | – | 650 | –
CCCCc1nc(Cl)c(CO)n1Cc1ccc(C(CC(=O)O)c2ccccc2)cc1 (centres unmarked) [Example 36] | – | – | 150
CCCCc1nc(Cl)c(C=O)n1Cc1ccc(C(CC(=O)O)C2CCCC2)cc1 (centres unmarked) [Example 37] | – | – | 190
CCCCc1nc(Cl)c(C=O)n1Cc1ccc(/C(=C/C(=O)NS(=O)(=O)c2ccc(C)cc2)c2ccccc2)cc1 [Example 39] | 59 | – | –
CCCCc1nc(Cl)c(C=O)n1Cc1ccc(/C(=C\C(=O)NS(=O)(=O)c2ccc(C)cc2)c2ccccc2)cc1 [Example 40] | 57 | – | –
